According to patent US20170370933A1, “METHODS AND COMPOSITIONS FOR IMMUNOMODULATION” (Nodality, Inc., priority 2013, published 2017):
Entries after “also recorded” stand apart in the source; their conditions may differ.

Columns and labels:
[1] = test system: breast cancer patients; assay: clinical study NCT01401062, Fresolimumab with radiotherapy in breast cancer: PBMC IMR expression, signaling, response; assay type: in vivo, human
Method: (§1) PBMC samples were collected from 7 healthy donors and 15 breast cancer patients enrolled in a clinical study NCT01401062, evaluating Fresolimumab (anti-TGF □) at 1 or 10 mg/kg IV in combination with radiotherapy (RT). Samples were cryopreserved then prepped and analyzed. Breast cancer donor samples were pre- and post-treatment. Basal expression of immunomodulatory receptors (IMRs) and short term signaling in response to modulation were profiled. Signaling following exposure to in vitro chemotherapeutic agents was also examined. Response to therapy in this trial was poor and therefore associations with clinical reponse was observational only.
Analysis of IMR expression and SCNP (modulated and unmodulated) was performed as detailed in previous Examples and in the specification.

[2] = test system: TGFb modulated signaling; assay: in vitro Fresolimumab on TGFb modulated signaling in breast cancer samples; assay type: cell-based, human
Method: (§2) In this Example, samples of peripheral blood mononuclear cells (PBMCs) from breast cancer patients and from healthy donors were analyzed for IMR expression and by single cell network profiling, both modulated and unmodulated. Samples were taken before and after treatment in the breast cancer patients. IMR expression was profiled and correlated with immune signaling; differences in immune signaling by SCNP in pre- and post-treatment samples was investigated; the in vitro effects of immune checkpoint inhibitors on signaling in pre- and post-treatment samples was investigated; and the in vitro effects of Fresolimumab on TGFb modulated signaling in pre-treatment samples was profiled.

[3] = test system: immune signaling pathways in PBMC subsets; assay: SCNP of PBMC from melanoma patients pre- and post-ipilimumab treatment; assay type: in vivo, human; conditions: for IL-15→p-STAT5 signaling in post-treatment samples: CD4− T cells, vs healthy and untreated donor samples
Method: Methods: 3 healthy and 13 melanoma patient cryopreserved samples, including 7 collected pre-treatment, and 6 collected post-treatment, were analyzed by SCNP. […] Cells were assessed for viability, cell subset frequencies and signaling in response to different modulators. A node is defined as combination of modulator and intracellular readout (e.g. IL-6→p-STAT3). Cytokine and TCR- or Fc[…]R-induced activation of STAT1, 3, 5, CD3 □ and Erk was evaluated in multiple immune cell populations and comparisons made based on disease, treatment time point and clinical responses.

[4] = test system: metastatic melanoma; conditions: ipilimumab alone compared to gp100 vaccine alone; previously treated metastatic melanoma; p=0.003; cited from earlier work
[5] = test system: CTLA-4 interaction with CD80/86 in T cells; assay: in vitro T cell activation on αCD3-coated plate with ipilimumab, 48 hr; assay type: cell-based; conditions: PBMCs on αCD3-coated plate, vs isotype control
Method: In this example, PBMCs were added to a αCD3-coated plate to induce T cell activation, then ipilimumab was added to block CTLA-4 interaction with CD80/86. Isotype control was added to a reference well. The cells were incubated at 37° C. for 48 hr, then fixed, permeabilized, stained, and data acquired as described in the Examples above. Cells were gated by CD3, CD4, and CD8, and the readouts were IL-2, TNF-α, Cyclin A2, and CTLA-4. Ipilimumab augmented CTLA-4 upregulation, cytokine production, and proliferation.

[6] = test system: p-STAT1, p-STAT3, p-STAT5 in whole blood cell subsets; assay: SCNP of cytokine-induced JAK/STAT signaling in whole blood of healthy donors; assay type: cell-based, human
Method: Method: Whole blood from 11 healthy donors (20-65 yrs, 7 males, 4 females, 8 Caucasians, 2 Hispanics, 1 East Asian) was stimulated at 37° C. in 96-well plates with a low, medium, and high dose of GM-CSF, IFN-α, IL-27 and IL-6, each added separately, as described in Example 5. For each dose, a stimulation time course was run with 6 time points between 3 and 45 minutes. […] The SCNP assay was performed using a fluorophore-labeled antibody cocktail to simultaneously measure signaling in six distinct cell populations, including: neutrophils, CD20+ B cells, CD3+CD4+ T cells, CD3+CD4− T cells (CD8 enriched), CD3−CD20− lymphocytes (NK cell enriched), and CD14+ monocytes. The median fluorescent intensity of phospho (p)-STAT1(Y701), p-STAT3(Y705), and p-STAT5(Y694) were measured in each defined cell population for each experimental condition.
Kinetic response to varying concentrations of modulators was investigated in normal samples (i.e. samples from persons who have no diagnosis of disease). 11 normal samples were donated with informed consent by Nodality Inc. employees and processed at Nodality Inc. in South San Francisco, Calif. The samples were treated with 4 different modulators (GM-CSF, IL-27, IFNa and IL-6) at 4 different concentrations of the modulator and activation levels of pStat1, pStat3 and pStat5 were measured at different time points. Activation levels were measured at 3, 5, 10, 15, 30 and 45 minutes using flow cytometry-based single cell network profiling. The concentrations of the stimulators are tabulated below:
Activation levels of different cell surface markers were also profiled using single cell network profiling and used in conjunction with gating to segregate the cells into discrete cell populations. In the gating analysis, SSC-A and FSC-A were first used to segregate lymphocytes from non-lymphocytes. CD14 and CD4 were then used to segregate the non-lymphocytes into populations of neutrophils and CD14+ cells (monocytes). CD3 and CD20 were then used to segregate the lymphocytes into populations of CD20+(B Cells), CD3+(T Cells) and CD20-CD3-cells. CD4 was used to segregate the CD3+ T cells into populations of CD3+CD4- and CD3+CD4+ T cells.

[7] = test system: p-Stat1, p-Stat3, p-Stat4, p-Stat5, p-Stat6, p-p38 in PBMC subsets; assay: SCNP of IFN-α signaling in PBMC from healthy donors; assay type: cell-based, human
Method: Methods: IFN-α-mediated signaling responses were measured by SCNP in PBMC samples from 12 healthy donors. PBMCs were processed for flow cytometry by fixation and permeabilization followed by incubation with fluorochrome-conjugated antibodies that recognize extracellular lineage markers and intracellular signaling molecules. The levels of several phospho-proteins (p-Stat1, p-Stat3, p-Stat4, p-Stat5, p-Stat6, and p-p38) were measured in multiple cell populations (CD14+ monocytes, CD20+ B cells, CD4+CD3+ T cells, and CD4−CD3+ T cells) at 15 minutes, 1, 2 and 4 hours post IFN-α exposure as described in Example 6.

[8] = test system: TCR→p-ERK/p-AKT in T cells; assay: in vitro Keytruda effect on TCR signaling in PBMC of breast cancer patients and healthy donors; assay type: cell-based, human
Method: as §2
as §1, with “Signaling following exposure to in vitro chemotherapeutic agents was also examined. Response to therapy in this trial was poor and therefore associations with clinical reponse was observational only.” left out
In addition, T cell receptor (TCR) signaling was studied using SCNP. The TCR was stimulated, as described elsewhere herein, and downstream readouts, in particular, p-ERK and p-AKT, p-PLCg2, p-CD3z, p-s6, and IkB were measured.

[9] = IL-6 stimulation, CD4+ T cells and monocytes, whole blood

For “Fresolimumab: anti-TGF, a TGFb inhibitor”, the response to therapy ([1]; Fresolimumab in combination with radiotherapy) was “poor”, the “PD-L1 expression in NK cells over the course of treatment” value ([1]; breast cancer patients' PBMC) was “trend was observed toward increasing PD-L1 expression” and the “TIM-3 expression in monocytes with treatment” value ([1]; breast cancer patients' PBMC) was “decrease in TIM-3 expression”. For the same substance, the “IMR expression patterns by dose” value ([1]; higher dose (1 or 10 mg/kg IV) of Fresolimumab, patient PBMC) was “trend toward higher IMR expression patterns”, the “TCR mediated signaling by dose” value ([1]; higher dose of Fresolimumab, patient PBMC) was “trend toward reduced TCR mediated signaling” and the “in vitro Fresolimumab activity” value [2] was “weak”.
With “ipilimumab: fully human monoclonal antibody that blocks cytotoxic T-lymphocyte-associated antigen 4 (CTLA-4)-mediated T-cell suppression” the “IL-15→p-STAT5 signaling in post-treatment samples” value [3] was “diminished”, the “IL-15→p-STAT5 signaling in post-treatment samples” value ([3]; listed as Ipilimumab) was “reduced IL-15→p-STAT5 signaling” and the “TCR→p-Erk, TCR→p-CD3z signaling in post-treatment samples” value ([3]; CD45RA+ but not CD45RA− CD4+ and CD4− subsets, vs healthy donors and pre-treatment melanoma samples) was “diminished”. The “hazard ratio for death” value [4] was 0.66, the CTLA-4 upregulation [5] was “augmented” and the “cytokine production (IL-2, TNF-α)” value [5] was “augmented”. The “proliferation (Cyclin A2)” value [5] was “augmented”.
For IL-6: cytokine modulator, the “time at which signal resolution fell to baseline levels” value ([6]; IL-6, monocytes (CD4+ T cells sustained)) was 45 min, the “time of peak p-STAT1 and p-STAT5” value [6, 9] was 10 to 15 min and the “time of peak p-STAT3 levels” value [6, 9] was 3 min. The “IL-6 induced activation in neutrophils” value ([6]; compared to CD4+ T cells and monocytes) was “very low” and the “cell subsets showing induced signaling” value ([6]; whole blood, six cell populations) was “only observed in CD4+ T cells and monocytes”.
With GM-CSF: cytokine modulator the GM-CSF→p-STAT5 signal termination ([6]; monocytes, neutrophils maintained persistent p-STAT5) was “efficient signal termination in monocytes”.
With IFN-α the “time of peak activation of all 3 STAT proteins” value ([6]; IFN-α stimulation, all cell subsets) was 10 min, the “signaling resolution in monocytes” value ([6]; IFN-α, signal sustained in all other subsets) was “almost complete at 45 minutes” and the “activation of p-Stat4” value ([7]; PBMC subsets) was “detected in T cell subsets (both CD4+ and CD4− T cells), but not in monocytes or B cells”. The “time of peak response for activation of p-Stat4, p-Stat6, p-p38” value ([7]; majority of cell types, PBMC) was 1 h and the “time of peak response for activation of p-Stat1, p-Stat3, p-Stat5” value ([7]; most cell types, PBMC) was 15 min.
In the case of “Keytruda: checkpoint blockade agent that reduces communication through the PD-1 pathway”, the “effect on TCR signaling (p-ERK and p-AKT readouts)” value ([8]; PD-1 negative (low PD-1 expression)) is reported as “no effect” and the “effect on TCR signaling (p-ERK and p-AKT readouts)” value ([8]; PD-1 positive (high expression) T cells) is reported as “clear trend toward an increase in signaling; also recorded: increased TCR→AKT and p-ERK”.
